The text below walks through data of patent publication US8071768B2, “Alkylquinoline and alkylquinazoline kinase modulators” (Janssen Pharmaceutica, N.V., priority 2005, dated 2011).

The target in experiment [1] is T1, isolated kinase domain of the human c-kit receptor (Homo sapiens, UniProt P10721).
T1 construct: isolated kinase domain of the human c-kit receptor; purchased ProQinase lot SP005
Kind of experiment: c-Kit Fluorescence Polarization Kinase Assay. The experiment is classed as biochemical. Particulars: uncertainty ±10%; read-out: ckit IC50. As for the experimental part:
c-Kit Fluorescence Polarization Kinase Assay
The compounds of the present invention are also specific inhibitors of c-Kit. Selection of preferred compounds of Formula I for use as c-Kit inhibitors was performed in the following manner using an in vitro kinase assay to measure inhibition of the isolated kinase domain of the human c-kit receptor in a fluorescence polarization (FP) protocol. The c-kit assay utilized the fluorescein-labeled phosphopeptide and the anti-phosphotyrosine antibody included in the Panvera Phospho-Tyrosine Kinase Kit (Green) supplied by Invitrogen. When c-kit phosphorylated the poly Glu4Tyr, the fluorescein-labeled phosphopeptide was displaced from the anti-phosphotyrosine antibody by the phosphorylated poly Glu4Tyr, thus decreasing the FP value. The c-kit kinase reaction was incubated at room temperature for 45 minutes under the following conditions: 1 nM c-kit (ProQinase, lot SP005), 100 ug/mL poly Glu4Tyr, 50 uM ATP, 5 mM MgCl2, 1 mM DTT, 0.01% Tween-20, 1% DMSO or compound in […], pH 7.5. The kinase reaction was stopped with the addition of EDTA. The fluorescein-labeled phosphopeptide and the anti-phosphotyrosine antibody were added and incubated for 30 minutes at room temperature and fluorescence polarization was read. Data points were an average of triplicate samples. Inhibition and IC50 data analysis were done with GraphPad Prism using a non-linear regression fit with a multiparamater, sigmoidal dose-response (variable slope) equation.
In general terms: Polarisation of emitted light reports the rotation of a fluorescent probe.

The next experiment addresses T2, TrkB (Homo sapiens, UniProt Q16620).
T2 construct: purchased Upstate 14-507M
Nature of the experiment: Trk B Fluorescence Polarization Kinase Assay. Particulars: uncertainty ±10%. The experiment is classed as biochemical. Put shortly:
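The TrkB kinase reaction (50 nM enzyme, 20 ug/mL poly Glu4Tyr, 150 uM ATP, 5 mM MgCl2, 1% DMSO) ran 30 minutes at room temperature and was stopped with EDTA. Phosphorylation was detected by fluorescence-polarization displacement of a fluorescein phosphopeptide from an anti-phosphotyrosine antibody. IC50 came from a variable-slope sigmoidal fit of triplicates.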

SMILES strings stand for the structures. Counter-ions that a name gives are not always drawn. Bounds are passed on as bounds.

T2 sequence (Q16620 32-822): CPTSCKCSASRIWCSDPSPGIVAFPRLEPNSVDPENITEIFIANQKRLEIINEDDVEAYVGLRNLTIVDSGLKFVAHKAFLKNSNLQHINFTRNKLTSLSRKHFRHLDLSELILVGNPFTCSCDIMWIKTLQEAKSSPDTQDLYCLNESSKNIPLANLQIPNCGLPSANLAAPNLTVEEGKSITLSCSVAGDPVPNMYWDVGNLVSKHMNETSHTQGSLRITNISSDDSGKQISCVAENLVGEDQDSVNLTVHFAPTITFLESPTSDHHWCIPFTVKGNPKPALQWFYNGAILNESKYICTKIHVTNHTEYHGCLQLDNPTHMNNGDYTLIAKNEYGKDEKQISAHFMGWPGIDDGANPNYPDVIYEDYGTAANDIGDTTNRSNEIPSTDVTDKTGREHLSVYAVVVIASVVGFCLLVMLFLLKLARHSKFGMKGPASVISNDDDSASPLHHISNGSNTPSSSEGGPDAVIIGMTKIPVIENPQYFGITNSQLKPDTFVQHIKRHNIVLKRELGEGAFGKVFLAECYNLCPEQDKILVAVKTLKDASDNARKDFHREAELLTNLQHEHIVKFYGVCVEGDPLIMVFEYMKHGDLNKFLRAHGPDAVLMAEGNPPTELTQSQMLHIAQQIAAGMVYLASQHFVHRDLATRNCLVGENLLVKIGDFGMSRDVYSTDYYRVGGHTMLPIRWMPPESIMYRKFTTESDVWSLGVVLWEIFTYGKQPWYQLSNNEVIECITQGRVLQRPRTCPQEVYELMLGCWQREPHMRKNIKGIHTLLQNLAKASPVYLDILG
T1 sequence (P10721 589-937 limits assumed): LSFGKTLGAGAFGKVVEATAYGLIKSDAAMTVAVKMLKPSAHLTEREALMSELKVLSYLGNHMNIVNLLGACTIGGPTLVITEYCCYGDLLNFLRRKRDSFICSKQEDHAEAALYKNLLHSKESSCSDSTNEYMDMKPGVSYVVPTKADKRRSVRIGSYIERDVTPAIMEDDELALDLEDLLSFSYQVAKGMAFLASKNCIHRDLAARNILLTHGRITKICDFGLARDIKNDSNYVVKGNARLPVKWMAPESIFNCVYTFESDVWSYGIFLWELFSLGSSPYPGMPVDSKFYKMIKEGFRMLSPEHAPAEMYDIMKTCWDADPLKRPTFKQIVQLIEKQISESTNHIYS

By IC50 is commonly meant the midpoint of a concentration-inhibition curve. `COc1cc2ncnc(C3CCN(C(=O)Nc4ccc(OC(C)C)cc4)CC3)c2cc1OC` [Compound 1, 4-(6,7-Dimethoxy-quinazolin-4-yl)-piperidine-1-carboxylic acid (4-isopropoxy-phenyl)-amide hydrochloride]: the IC50 in experiment [1] amounted to 82.5 nM; against TrkB, 0.22 µM.

As to `COc1cc2ncnc(C3CCN(C(=O)Nc4ccc(C(C)C)cc4)CC3)c2cc1OC` [Compound 4, 4-(6,7-Dimethoxy-quinazolin-4-yl)-piperidine-1-carboxylic acid (4-isopropyl-phenyl)-amide], in experiment [1], the IC50 amounted to 610 nM.

As for `COc1cc2ncnc(C3CCN(C(=O)Nc4ccc(OC5CCC5)nc4)CC3)c2cc1OC` [Compound 17, 4-(6,7-Dimethoxy-quinazolin-4-yl)-piperidine-1-carboxylic acid (6-cyclobutoxy-pyridin-3-yl)-amide], the 50% inhibitory concentration (IC50) in experiment [1] worked out at 77.5 nM; against TrkB, 0.5 µM.

Turning to `COc1cc2ncnc(C3CCN(C(=O)Nc4ccc(N5CCOCC5)cc4)CC3)c2cc1OC` [Compound 18, 4-(6,7-Dimethoxy-quinazolin-4-yl)-piperidine-1-carboxylic acid (4-morpholin-4-yl-phenyl)-amide], the IC50 in experiment [1] is 158 nM; against TrkB, 19.2 µM.

For `O=C1CCCN1CCCOc1ccc2c(C3CCN(C(=O)Nc4ccc(N5CCOCC5)cc4)CC3)ncnc2c1` [Compound 68, 4-{7-[3-(2-Oxo-pyrrolidin-1-yl)-propoxy]-quinazolin-4-yl}-piperidine-1-carboxylic acid (4-morpholin-4-yl-phenyl)-amide], the results for the IC50 (in experiment [1]; against TrkB) were 28 nM and above 20 µM, respectively.

For the compound `O=C1CCCN1CCCOc1ccc2c(C3CCN(C(=O)Nc4ccc(N5CCOCC5)nc4)CC3)ncnc2c1` [Compound 72, 4-{7-[3-(2-Oxo-pyrrolidin-1-yl)-propoxy]-quinazolin-4-yl}-piperidine-1-carboxylic acid (6-morpholin-4-yl-pyridin-3-yl)-amide], the values for the IC50 (in experiment [1]; at TrkB) were 23 nM and 2 µM, respectively.

On to `CC(C)Oc1ccc(NC(=O)N2CCC(c3ncnc4ccc(OCCCN5CCN(C)CC5)cc34)CC2)cc1` [Compound 76, 4-{6-[3-(4-Methyl-piperazin-1-yl)-propoxy]-quinazolin-4-yl}-piperidine-1-carboxylic acid (4-isopropoxy-phenyl)-amide], for which the IC50 in experiment [1] was determined as 282 nM; at TrkB it was 7.9 µM.

For `CN1CCN(CCCOc2ccc3c(C4CCN(C(=O)Nc5ccc(N6CCOCC6)nc5)CC4)ncnc3c2)CC1` [Compound 80, 4-{7-[3-(4-Methyl-piperazin-1-yl)-propoxy]-quinazolin-4-yl}-piperidine-1-carboxylic acid (6-morpholin-4-yl-pyridin-3-yl)-amide], the results for the IC50 (in experiment [1]; at TrkB) were 160 nM and 9.1 µM, respectively.

Compound `O=C(Nc1ccc(N2CCCC2)cc1)N1CCC(c2ncnc3cc(OCCCN4CCC[C@H]4CO)ccc23)CC1` [Compound 161, (S)-4-{7-[3-(2-Hydroxymethyl-pyrrolidin-1-yl)-propoxy]-quinazolin-4-yl}-piperidine-1-carboxylic acid (4-pyrrolidin-1-yl-phenyl)-amide] yielded an IC50 on TrkB of 6.48 µM.

In the case of `CC(=O)N1CCC[C@H]1COc1ccc2c(C3CCN(C(=O)Nc4ccc(N5CCCC5)cc4)CC3)ncnc2c1` [Compound 162, (S)-4-[7-(1-Acetyl-pyrrolidin-2-ylmethoxy)-quinazolin-4-yl]-piperidine-1-carboxylic acid (4-pyrrolidin-1-yl-phenyl)-amide], on TrkB, the IC50 was above 21 µM.

With `CC(=O)N1CCC(COc2ccc3c(C4CCN(C(=O)Nc5ccc(N6CCCC6)cc5)CC4)ncnc3c2)CC1` [Compound 163, 4-[7-(1-Acetyl-piperidin-4-ylmethoxy)-quinazolin-4-yl]-piperidine-1-carboxylic acid (4-pyrrolidin-1-yl-phenyl)-amide], 4.12 µM corresponded to half-maximal inhibition on TrkB (IC50).
